# Measured values as given in PMC7487798, “Glutaredoxin 1 Deficiency Leads to Microneme Protein-Mediated Growth Defects in Neospora caninum” (Frontiers in Microbiology, 2020).
# Target: T1, NcGrx1 (rNcGrx1) (Neospora caninum, UniProt F0VCE0)
# T1 construct: gene NCLIV_038390; recombinant NcGrx1; dithiol CPYC active site
# Experiment: HED assay, coupled to glutathione reductase, NADPH consumption at […] nm
# Format: biochemical
# Conditions: 0.05-2 mM HED, 600 nM enzyme, 1 mM GSH, 200 μM NADPH, 100 mM potassium phosphate, 1 mM EDTA, pH 7.0, 25 °C; HED preincubated 3 min with GSH to form the mixed disulfide
# T1 sequence (F0VCE0 entry or part of it): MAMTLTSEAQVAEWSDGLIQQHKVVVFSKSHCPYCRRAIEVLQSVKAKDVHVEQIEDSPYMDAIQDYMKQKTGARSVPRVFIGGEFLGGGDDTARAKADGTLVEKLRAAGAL
smiles,measurement,value
OCCSSCCO [β-hydroxyethyl disulfide],Km,208 ± 23.9 µM
